Starred links: 1 amine or outer side, 2 acyl side, 3 side chain; linkers in the order of their positions; H or OH if unused. Non-standard residues stand in square brackets, D forms with d. Residues, ends and D or L forms follow the SMILES beside them. *: point of attachment. Dolaproine = CO[C@@H]([C@@H]1CCCN1)[C@@H](C)C(=O)O; X12 = O=C([C@@H](N[*:1])[C@@H]1Cc2ccccc21)[*:2]; Dil = CC[C@H](C)[C@H](NC)[C@@H](CC(=O)O)OC; Phe(4-NH2) = Nc1ccc(C[C@H](N)C(=O)O)cc1; Doe = c1ccc(C[C@H](N*)c2nccs2)cc1; NMeαMePro = CN1CCC[C@@]1(C)C(=O)*; Ac4c(3-oxa) = NC1(C(=O)O)COC1; d(αMeP) = C[C@]1(C(=O)O)CCCN1; αMeP = C[C@@]1(C(=O)O)CCCN1; Iva = CC[C@](C)(N)C(=O)O; NMeAib = CNC(C)(C)C(=O)O; X8 = C1=CC=CC(CCN*)C=C1; Ac3c = NC1(C(=O)O)CC1; Aib = CC(C)(N)C(=O)O; X14 = c1[nH]nnc1CN*; NHPr = CCCN*
How the values were obtained:
Test in all cases: In vitro cell assay, MTS cell viability 96 hours after treatment
Format in all cases: cell-based
[1] = tested on: BT474 (breast cancer); conditions: Homo sapiens, BT-474, BT474 cells; geometric mean; cytotoxic peptides; read-out: BT474 GMEAN IC50
Procedure: (§1) Cells were treated with 3-fold serially diluted antibody-drug conjugates or free compounds (i.e., no antibody conjugated to the drug) in duplicate at 10 concentrations. Cell viability was determined by CellTiter 96® AQueous One Solution Cell Proliferation MTS Assay (Promega, Madison Wis.) 96 hours after treatment. Relative cell viability was determined as percentage of untreated control.

[2] = tested on: N87 (gastric cancer); conditions: read-out: N87 GMEAN IC50, N87 cells; geometric mean; cytotoxic peptides
Procedure: as §1

[3] = tested on: MDA-MB-361-DYT2 (breast cancer); conditions: read-out: MDA-MB-361-DYT2 GMEAN IC50, MDA-MB-361-DYT2 cells; geometric mean; cytotoxic peptides
Procedure: as §1

Row | SMILES | IC50 [1] [nM] | IC50 [2] [nM] | IC50 [3] [nM]
1 | CC[C@H](C)[C@@H]([C@@H](CC(=O)N1CCC[C@H]1[C@H](OC)[C@@H](C)C(=O)N[C@@H](Cc1ccccc1)C(=O)OC)OC)N(C)C(=O)[C@@H](NC(=O)[C@@]1(C)CCCCN1)C(C)C (single isomer, unassigned) [#159] | 0.07 | 0.075 | –
2 | CC[C@H](C)[C@@H]([C@@H](CC(=O)N1CCC[C@H]1[C@H](OC)[C@@H](C)C(=O)N[C@@H](Cc1ccccc1)c1nccs1)OC)N(C)C(=O)[C@@H](NC(=O)C1(N)CC1)C(C)C [#51, N^2-[(1-aminocyclopropyl)carbonyl]-N-[(3R,4S,5S)-3-methoxy-1-{(2S)-2-[(1R,2R)-1-methoxy-2-methyl-3-oxo-3-{[(1S)-2-phenyl-1-(1,3-thiazol-2-yl)ethyl]amino}propyl]pyrrolidin-1-yl}-5-methyl-1-oxoheptan-4-yl]-N-methyl-L-valinamide] (H-[Ac3c]V[Dil][Dolaproine]-Doe) | < 0.599 | 3.66 | –
3 | CC[C@H](C)[C@@H]([C@@H](CC(=O)N1CCC[C@H]1[C@H](OC)[C@@H](C)C(=O)N[C@@H](Cc1ccccc1)c1nccs1)OC)N(C)C(=O)[C@@H](NC(=O)C(C)(C)N)C(C)C [#54, 2-methylalanyl-N-[(3R,4S,5S)-3-methoxy-1-{(2S)-2-[(1R,2R)-1-methoxy-2-methyl-3-oxo-3-{[(1S)-2-phenyl-1-(1,3-thiazol-2-yl)ethyl]amino}propyl]pyrrolidin-1-yl}-5-methyl-1-oxoheptan-4-yl]-N-methyl-L-valinamide] (H-[Aib]V[Dil][Dolaproine]-Doe) | < 0.133 | < 0.221 | –
4 | CC[C@H](C)[C@@H]([C@@H](CC(=O)N1CCC[C@H]1[C@H](OC)[C@@H](C)C(=O)N[C@@H](Cc1ccccc1)C(=O)O)OC)N(C)C(=O)[C@@H](NC(=O)C(C)(C)N)C(C)C [#69, 2-methylalanyl-N-[(3R,4S,5S)-1-{(2S)-2-[(1R,2R)-3-{[(1S)-1-carboxy-2-phenylethyl]amino}-1-methoxy-2-methyl-3-oxopropyl]pyrrolidin-1-yl}-3-methoxy-5-methyl-1-oxoheptan-4-yl]-N-methyl-L-valinamide] (H-[Aib]V[Dil][Dolaproine]F-OH) | 80.2 | 66 | –
5 | CC[C@H](C)[C@@H]([C@@H](CC(=O)N1CCC[C@H]1[C@H](OC)[C@@H](C)C(=O)N[C@@H](Cc1ccccc1)C(=O)OC)OC)N(C)C(=O)[C@@H](NC(=O)[C@@]1(C)CCCN1)C(C)C [#131, 2-methyl-D-prolyl-N-[(3R,4S,5S)-3-methoxy-1-{(2S)-2-[(1R,2R)-1-methoxy-3-{[(2S)-1-methoxy-1-oxo-3-phenylpropan-2-yl]amino}-2-methyl-3-oxopropyl]pyrrolidin-1-yl}-5-methyl-1-oxoheptan-4-yl]-N-methyl-L-valinamide] (H-[d(αMeP)]V[Dil][Dolaproine]F-OMe) | 0.072 | – | –
6 | CC[C@H](C)[C@@H]([C@@H](CC(=O)N1CCC[C@H]1[C@H](OC)[C@@H](C)C(=O)N[C@@H](Cc1ccccc1)C(N)=O)OC)N(C)C(=O)[C@@H](NC(=O)C(C)(C)NC)C(C)C [#141, N,2-dimethylalanyl-N-{(1S,2R)-4-{(2S)-2-[(1R,2R)-3-{[(1S)-2-amino-1-benzyl-2-oxoethyl]amino}-1-methoxy-2-methyl-3-oxopropyl]pyrrolidin-1-yl}-2-methoxy-1-[(1S)-1-methylpropyl]-4-oxobutyl}-N-methyl-L-valinamide] (H-[NMeAib]V[Dil][Dolaproine]F-NH2) | 3.37 | 3.02 | –
7 | CCCNC(=O)[C@H](Cc1ccccc1)NC(=O)[C@H](C)[C@@H](OC)[C@@H]1CCCN1C(=O)C[C@@H](OC)[C@H]([C@@H](C)CC)N(C)C(=O)[C@@H](NC(=O)C(C)(C)NC)C(C)C [#142, N,2-dimethylalanyl-N-{(1S,2R)-4-{(2S)-2-[(1R,2R)-3-{[(1S)-1-benzyl-2-oxo-2-(propylamino)ethyl]amino}-1-methoxy-2-methyl-3-oxopropyl]pyrrolidin-1-yl}-2-methoxy-1-[(1S)-1-methylpropyl]-4-oxobutyl}-N-methyl-L-valinamide] (H-[NMeAib]V[Dil][Dolaproine]F-NHPr) | 0.279 | – | –
8 | CC[C@H](C)[C@@H]([C@@H](CC(=O)N1CCC[C@H]1[C@H](OC)[C@@H](C)C(=O)N[C@@H](Cc1ccccc1)C(=O)OC)OC)N(C)C(=O)[C@@H](NC(=O)[C@@](C)(N)CC)C(C)C [#148, L-isovalyl-N-{(1S,2R)-4-{(2S)-2-[(1R,2R)-3-{[(1S)-1-benzyl-2-methoxy-2-oxoethyl]amino}-1-methoxy-2-methyl-3-oxopropyl]pyrrolidin-1-yl}-2-methoxy-1-[(1S)-1-methylpropyl]-4-oxobutyl}-N-methyl-L-valinamide] (H-[Iva]V[Dil][Dolaproine]F-OMe) | 0.429 | – | –
9 | CC[C@H](C)[C@@H]([C@@H](CC(=O)N1CCC[C@H]1[C@H](OC)[C@@H](C)C(=O)NCCC1C=CC=CC=C1)OC)N(C)C(=O)[C@@H](NC(=O)[C@]1(C)CCCN1)C(C)C [#182, 2-methyl-L-prolyl-N-[(3R,4S,5S)-1-{(2S)-2-[(1R,2R)-3-{[2-(cyclohepta-2,4,6-trien-1-yl)ethyl]amino}-1-methoxy-2-methyl-3-oxopropyl]pyrrolidin-1-yl}-3-methoxy-5-methyl-1-oxoheptan-4-yl]-N-methyl-L-valinamide] (H-[αMeP]V[Dil][Dolaproine]-X8) | – | 0.148 | 0.122
10 | CC[C@H](C)[C@@H]([C@@H](CC(=O)N1CCC[C@H]1[C@H](OC)[C@@H](C)C(=O)N[C@@H](Cc1ccc(N)cc1)C(=O)OC)OC)N(C)C(=O)[C@@H](NC(=O)[C@]1(C)CCCN1C)C(C)C [#208, 1,2-dimethyl-L-prolyl-N-[(3R,4S,5S)-1-{(2S)-2-[(1R,2R)-3-{[(2S)-3-(4-aminophenyl)-1-methoxy-1-oxopropan-2-yl]amino}-1-methoxy-2-methyl-3-oxopropyl]pyrrolidin-1-yl}-3-methoxy-5-methyl-1-oxoheptan-4-yl]-N-methyl-L-valinamide] (NMeαMePro-V[Dil][Dolaproine][Phe(4-NH2)]-OMe) | – | 0.379 | 0.336
11 | CC[C@H](C)[C@@H]([C@@H](CC(=O)N1CCC[C@H]1[C@H](OC)[C@@H](C)C(=O)N[C@H](C(=O)OC)[C@@H]1Cc2ccccc21)OC)N(C)C(=O)[C@@H](NC(=O)C(C)(C)N)C(C)C [#227] (H-[Aib]V[Dil][Dolaproine][X12]-OMe) | – | 19 | 12.9
12 | CC[C@H](C)[C@@H]([C@@H](CC(=O)N1CCC[C@H]1[C@H](OC)[C@@H](C)C(=O)N[C@@H](Cc1ccccc1)C(=O)OC)OC)N(C)C(=O)[C@@H](NC(=O)C1(N)COC1)C(C)C [#233] (H-[Ac4c(3-oxa)]V[Dil][Dolaproine]F-OMe) | – | 8.41 | 5.04
13 | CC[C@H](C)[C@@H]([C@@H](CC(=O)N1CCC[C@H]1[C@H](OC)[C@@H](C)C(=O)N[C@@H](Cc1ccccc1)C(=O)NCc1c[nH]nn1)OC)N(C)C(=O)[C@@H](NC(=O)C(C)(C)NC)C(C)C [#240] (H-[NMeAib]V[Dil][Dolaproine]F-X14) | – | 19.9 | 23.5
14 | CC[C@H](C)[C@@H]([C@@H](CC(=O)N1CCC[C@H]1[C@H](OC)[C@@H](C)C(=O)N[C@@H](Cc1ccc(O)cc1)C(=O)OC)OC)N(C)C(=O)[C@@H](NC(=O)C(C)(C)NC)C(C)C [#243] (H-[NMeAib]V[Dil][Dolaproine]Y-OMe) | – | 1.3 | 1.28
